Each block holds one compound with its values, some of them ahead of it.
Tested on: 633275-114-R-J1-PDC complex spheroids, viability
Experiment: Anticancer human tumor 633275-114-R-J1-PDC patient-derived endometrial adenocarcinoma cell line growth inhibition [GQUAD]
Conditions: for IC50: curve of first compound; for viability, T/C: stronger effect = lower value
Excerpt: DNA G-quadruplex Stabilizer Agents in Combinations in Complex Spheroids
A high-throughput screen of multi-cell type tumor spheroids was designed to identify active combinations of DNA G-quadruplex stabilizer agents and targeted small molecules. Complex spheroids include a stromal component modeled by human endothelial cells (HUVEC) and fibroblasts modeled by human mesenchymal stem cells (MSCs). The concentration ranges selected for each drug and investigational agent were based upon clinically achievable concentrations if the clinical Cmax of the agent was known.
Compounds. The drugs and investigational agents: pidnarulex (CX-5461; NSC782164), APTO-253 (NSC789042), BRACO-19 (NSC847499), peposertib (NSC802822), ceralasertib (NSC780249), elimusertib (NSC800525), camonsertib (NSC841442), AZD-1390 (NSC803789), olaparib (NSC753686), talazoparib (NSC767125), ART-558 (NSC835418), sotorasib (NSC818433), MRTX-1133 (NSC836407), SN-38 (NSC673596), topotecan (NSC609699), etoposide (NSC141540), doxorubicin (NSC123127), gemcitabine (NSC613327), 5-fluorouracil (NSC19893), paclitaxel (NSC125973), vemurafenib (NSC761431), panobinostat (NSC761190), R-306465 (JNJ-16241199; NSC773264), adavosertib (NSC754352), TP-3654 (NSC805149), carboplatin (NSC241240), KSQ-4279 (NSC840948), and staurosporine (NSC755774) were obtained from the National Cancer Institute (NCI) Developmental Therapeutics Program Chemical Repository (34). The FDA-approved anticancer drug set is available from the NCI Developmental Therapeutics Program. […] The stock solutions were prepared in dimethyl sulfoxide (DMSO, Sigma-Aldrich, St. Louis, MO, cat. D2650) at 800-fold the tested concentration and stored at -70 degrees C prior to their use. All drugs and investigational agents were tested over a range starting from a high concentration at or near the clinical Cmax and decreasing in half-log increments. If the clinical Cmax for an agent had not been determined, the highest concentration tested was 10 microM.
2.3 Cell Culture. All cells were maintained in an incubator at 37 degrees C and 5% CO2 with 95% humidity. The PDC lines were cultured according to standard operating procedures established by the NCI PDMR. All PDCs were thawed and cultured in Matrigel-coated flasks prepared with a working solution of 1X Ham's F-12 nutrient mix, without supplementation (Invitrogen, cat. 11765054), 100 U/mL penicillin-streptomycin (Invitrogen, cat. 15140122), and 2.5% Matrigel (Corning Inc., cat. 354248) for the first three passages. The 857933-349-R-J2-PDC line was cultured in 6C/Colon 1B media, which includes advanced DMEM/F-12 (Thermo Fisher Scientific, cat. 12634028), 10 mM HEPES (Thermo Fisher Scientific, cat. 15630080), 1X GlutaMAX supplement (Thermo Fisher Scientific, cat. 35050061), 0.1 mg/mL primocin (InvivoGen, cat. ant-pm-2), 10% defined fetal bovine serum, heat inactivated (HyClone Laboratories Inc., cat. SH30070.03HI), 50% L-WRN conditioned media (ATCC, cat. CRL-3276), 1.25 mM N-Acetyl-L-cysteine (Sigma-Aldrich, cat. A9165), 10 mM nicotinamide (Sigma-Aldrich, cat. N0636), 1X B-27 supplement (Thermo Fisher Scientific, cat. 17504044), 1X N-2 supplement (Thermo Fisher Scientific, cat. 17502048), 10 microM Y-27632 dihydrochloride (Tocris Bioscience, cat. 1254), and 50 ng/mL human EGF recombinant protein (Thermo Fisher Scientific, cat. PHG0311). The 485176-168-R4-J1-PDC line was cultured in Panc media, which includes all 6C/Colon 1B media components plus 100 ng/mL human FGF-10 (Thermo Fisher Scientific, cat. 100-26), 500 nM SB-431542 (Selleckchem, cat. S1067), and gastrin (Tocris, cat. 3006).
[…]

[1] = second compound 0.0316 µM, first compound 0.0316 µM
[2] = second compound 0.0316 µM, first compound 0.1 µM
[3] = second compound 0.0316 µM, first compound 0.316 µM
[4] = second compound 0.0316 µM, first compound 1 µM
[5] = second compound 0.0316 µM, first compound 3.16 µM
[6] = second compound 0.0316 µM, first compound 10 µM
[7] = second compound 0.1 µM, first compound 0.0316 µM
[8] = second compound 0.1 µM, first compound 0.1 µM
[9] = second compound 0.1 µM, first compound 0.316 µM
[10] = second compound 0.1 µM, first compound 1 µM
[11] = second compound 0.1 µM, first compound 3.16 µM
[12] = second compound 0.1 µM, first compound 10 µM
[13] = second compound 0.316 µM, first compound 0.0316 µM
[14] = second compound 0.316 µM, first compound 0.1 µM
[15] = second compound 0.316 µM, first compound 0.316 µM
[16] = second compound 0.316 µM, first compound 1 µM
[17] = second compound 0.316 µM, first compound 3.16 µM
[18] = second compound 0.316 µM, first compound 10 µM
[19] = second compound 1 µM, first compound 0.0316 µM
[20] = second compound 1 µM, first compound 0.1 µM
[21] = second compound 1 µM, first compound 0.316 µM
[22] = second compound 1 µM, first compound 1 µM
[23] = second compound 1 µM, first compound 3.16 µM
[24] = second compound 1 µM, first compound 10 µM
[25] = second compound 3.16 µM, first compound 0.0316 µM
[26] = second compound 3.16 µM, first compound 0.1 µM
[27] = second compound 3.16 µM, first compound 0.316 µM
[28] = second compound 3.16 µM, first compound 1 µM
[29] = second compound 3.16 µM, first compound 3.16 µM
[30] = second compound 3.16 µM, first compound 10 µM
[31] = second compound 10 µM, first compound 0.0316 µM
[32] = second compound 10 µM, first compound 0.1 µM
[33] = second compound 10 µM, first compound 0.316 µM
[34] = second compound 10 µM, first compound 1 µM
[35] = second compound 10 µM, first compound 3.16 µM
[36] = second compound 10 µM, first compound 10 µM
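Also: spheroids exposed to the agents for seven days.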
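For viability, T/C in this document: percent of DMSO vehicle control viability which is 100%.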

IC50 (second compound 0.0316 µM): 5340 nM
IC50 (second compound 0.1 µM): 3830 nM
IC50 (second compound 0.316 µM): 1460 nM
IC50 (second compound 1 µM): < 31.6 nM
IC50 (second compound 3.16 µM): < 31.6 nM
IC50 (second compound 10 µM): < 31.6 nM
Structure (SMILES): CCCS(=O)(=O)Nc1ccc(F)c(C(=O)c2c[nH]c3ncc(-c4ccc(Cl)cc4)cc23)c1F + Cc1cnc(CNC(=O)c2c(=O)c3ccc(N4CCCN(C)CC4)nc3n3c2sc2ccccc23)cn1
viability, T/C [1]: 68.7%
viability, T/C [2]: 67.6%
viability, T/C [3]: 72.9%
viability, T/C [4]: 77%
viability, T/C [5]: 69.4%
viability, T/C [6]: 26.3%
viability, T/C [7]: 55.9%
viability, T/C [8]: 53.1%
viability, T/C [9]: 56.1%
viability, T/C [10]: 58.1%
viability, T/C [11]: 56.4%
viability, T/C [12]: 20.7%
viability, T/C [13]: 49%
viability, T/C [14]: 53.3%
viability, T/C [15]: 50.8%
viability, T/C [16]: 54%
viability, T/C [17]: 46.8%
viability, T/C [18]: 19.3%
viability, T/C [19]: 40.7%
viability, T/C [20]: 43.6%
viability, T/C [21]: 47.7%
viability, T/C [22]: 47.3%
viability, T/C [23]: 43.3%
viability, T/C [24]: 13.6%
viability, T/C [25]: 37.2%
viability, T/C [26]: 37.1%
viability, T/C [27]: 36.7%
viability, T/C [28]: 40.3%
viability, T/C [29]: 40.6%
viability, T/C [30]: 7.26%
viability, T/C [31]: 30.6%
viability, T/C [32]: 33.1%
viability, T/C [33]: 34%
viability, T/C [34]: 35.9%
viability, T/C [35]: 27.8%
viability, T/C [36]: 0.18%

IC50 (second compound 0.0316 µM): > 10000 nM
IC50 (second compound 0.1 µM): 1120 nM
IC50 (second compound 0.316 µM): < 31.6 nM
IC50 (second compound 1 µM): < 31.6 nM
IC50 (second compound 3.16 µM): < 31.6 nM
IC50 (second compound 10 µM): < 31.6 nM
Structure (SMILES): O=c1[nH]cc(F)c(=O)[nH]1 + Cc1cnc(CNC(=O)c2c(=O)c3ccc(N4CCCN(C)CC4)nc3n3c2sc2ccccc23)cn1
viability, T/C [1]: 67%
viability, T/C [2]: 66.8%
viability, T/C [3]: 62.7%
viability, T/C [4]: 64.5%
viability, T/C [5]: 58.8%
viability, T/C [6]: 50.6%
viability, T/C [7]: 60.6%
viability, T/C [8]: 49.7%
viability, T/C [9]: 55.8%
viability, T/C [10]: 48.5%
viability, T/C [11]: 51%
viability, T/C [12]: 43.7%
viability, T/C [13]: 45.1%
viability, T/C [14]: 49.6%
viability, T/C [15]: 45.6%
viability, T/C [16]: 46.8%
viability, T/C [17]: 46.1%
viability, T/C [18]: 34.4%
viability, T/C [19]: 40.9%
viability, T/C [20]: 45.9%
viability, T/C [21]: 39.4%
viability, T/C [22]: 39.2%
viability, T/C [23]: 41.2%
viability, T/C [24]: 31.5%
viability, T/C [25]: 40.7%
viability, T/C [26]: 38%
viability, T/C [27]: 37%
viability, T/C [28]: 32.6%
viability, T/C [29]: 36.7%
viability, T/C [30]: 34.9%
viability, T/C [31]: 35.8%
viability, T/C [32]: 33.6%
viability, T/C [33]: 30.6%
viability, T/C [34]: 38.4%
viability, T/C [35]: 30.9%
viability, T/C [36]: 25%

Source: PubChem BioAssay AID2060505 (Molecular Pharmacology Branch, DTP, NCI, 2025)
